Experimental data from ChEMBL document CHEMBL3877274, “Preparation of novel ring-A fused azole derivatives of betulin and evaluation of their cytotoxicity” (Eur J Med Chem, 2017).
Activity calls are given as the source filed them. The rule behind the calls is not given here.

How the values were obtained:
[1] = Cytotoxicity against human A549 cells measured after 72 hrs by MTT assay; assay type: functional, cell-based; conditions: A549, 72 h
[2] = Cytotoxicity against human MS cells measured after 72 hrs by MTT assay; assay type: functional, cell-based
[3] = Cytotoxicity against human Hep2 cells measured after 72 hrs by MTT assay; assay type: functional, cell-based; conditions: HEp-2, 72 h
[4] = Cytotoxicity against human HCT116 cells measured after 72 hrs by MTT assay; assay type: functional, cell-based; conditions: HCT-116, 72 h
[5] = Cytotoxicity against human TE32 cells measured after 72 hrs by MTT assay; assay type: functional, cell-based; conditions: RD
[6] = Cytotoxicity against human HEK293 cells measured after 72 hrs by MTT assay; assay type: toxicity, cell-based
[7] = Toxicity in po or ip dosed mouse administered as single dose measured after 14 days; assay type: organism-based; conditions: in vivo
HCT-116 [8] = experiment: Cytotoxicity against human HCT116 cells at 5.7 uM by MTT assay; assay type: functional, cell-based; conditions: TDE = time-dependent effect
HCT-116 [9] = experiment: Induction of apoptosis in human HCT116 cells assessed as mitochondrial membrane permeability loss by measuring rhodamine 123 accumulation at 5.7 uM measured after 18 hrs by fluorescence inverted microscopic analysis; assay type: functional, cell-based
HCT-116 [10] = experiment: Induction of apoptosis in human HCT116 cells assessed as chromatin condensation at 5.7 uM measured after 18 hrs by Hoechst 33258 staining based fluorescence inverted microscopic analysis; assay type: functional, cell-based
HCT-116 [11] = experiment: Induction of apoptosis in human HCT116 cells assessed as viable cells at 5.7 uM measured after 18 hrs by Annexin-V FITC/propidium iodide staining based flow cytometry (reference value: 92.83%); assay type: functional; conditions: HCT-116, 18 h, read-out: Activity
HCT-116 [12] = experiment: Induction of apoptosis in human HCT116 cells assessed as early apoptotic cells at 5.7 uM measured after 18 hrs by Annexin-V FITC/propidium iodide staining based flow cytometry (reference value: 3.92%); assay type: functional
HCT-116 [13] = experiment: Induction of apoptosis in human HCT116 cells assessed as late apoptotic cells at 5.7 uM measured after 18 hrs by Annexin-V FITC/propidium iodide staining based flow cytometry (reference value: 1.13%); assay type: functional
HCT-116 [14] = experiment: Induction of apoptosis in human HCT116 cells assessed as necrotic cells at 5.7 uM measured after 18 hrs by Annexin-V FITC/propidium iodide staining based flow cytometry (reference value: 2.12%); assay type: functional
HCT-116 [15] = experiment: Induction of apoptosis in human HCT116 cells assessed as increase in caspase-8 activity at 5.7 uM measured up to 24 hrs; assay type: functional, cell-based
HCT-116 [16] = experiment: Induction of apoptosis in human HCT116 cells assessed as increase in caspase-3/7 activity at 5.7 uM measured up to 24 hrs; assay type: functional, cell-based
HCT-116 [17] = experiment: Induction of apoptosis in human HCT116 cells assessed as increase in cck18 level at 5.7 uM measured after 18 hrs; assay type: functional, cell-based
HCT-116 [18] = experiment: Induction of apoptosis in human HCT116 cells assessed as appearance of half moon or crescent shape nuclei at 5.7 uM measured after 18 hrs by Hoechst 33258 staining based fluorescence inverted microscopic analysis; assay type: functional, cell-based
HCT-116 [19] = experiment: Induction of apoptosis in human HCT116 cells assessed as nuclear fragmentation at 5.7 uM measured after 18 hrs by Hoechst 33258 staining based fluorescence inverted microscopic analysis; assay type: functional, cell-based
HCT-116 [20] = experiment: Induction of apoptosis in human HCT116 cells assessed as formation of apoptotic bodies at 5.7 uM measured after 18 hrs by Hoechst 33258 staining based fluorescence inverted microscopic analysis; assay type: functional, cell-based
HCT-116 [21] = experiment: Induction of apoptosis in human HCT116 cells assessed as mitochondrial membrane permeability loss by measuring rhodamine 123 accumulation at 6.7 uM measured after 18 hrs by fluorescence inverted microscopic analysis; assay type: functional, cell-based
HCT-116 [22] = experiment: Induction of apoptosis in human HCT116 cells assessed as chromatin condensation at 6.7 uM measured after 18 hrs by Hoechst 33258 staining based fluorescence inverted microscopic analysis; assay type: functional, cell-based
HCT-116 [23] = experiment: Induction of apoptosis in human HCT116 cells assessed as viable cells at 6.7 uM measured after 18 hrs by Annexin-V FITC/propidium iodide staining based flow cytometry (reference value: 92.83%); assay type: functional; conditions: HCT-116, 18 h, read-out: Activity
HCT-116 [24] = experiment: Induction of apoptosis in human HCT116 cells assessed as early apoptotic cells at 6.7 uM measured after 18 hrs by Annexin-V FITC/propidium iodide staining based flow cytometry (reference value: 3.92%); assay type: functional
HCT-116 [25] = experiment: Induction of apoptosis in human HCT116 cells assessed as late apoptotic cells at 6.7 uM measured after 18 hrs by Annexin-V FITC/propidium iodide staining based flow cytometry (reference value: 1.13%); assay type: functional
HCT-116 [26] = experiment: Induction of apoptosis in human HCT116 cells assessed as necrotic cells at 6.7 uM measured after 18 hrs by Annexin-V FITC/propidium iodide staining based flow cytometry (reference value: 2.12%); assay type: functional
HCT-116 [27] = experiment: Induction of apoptosis in human HCT116 cells assessed as appearance of half moon or crescent shape nuclei at 6.7 uM measured after 18 hrs by Hoechst 33258 staining based fluorescence inverted microscopic analysis; assay type: functional, cell-based
HCT-116 [28] = experiment: Induction of apoptosis in human HCT116 cells assessed as nuclear fragmentation at 6.7 uM measured after 18 hrs by Hoechst 33258 staining based fluorescence inverted microscopic analysis; assay type: functional, cell-based
HCT-116 [29] = experiment: Induction of apoptosis in human HCT116 cells assessed as formation of apoptotic bodies at 6.7 uM measured after 18 hrs by Hoechst 33258 staining based fluorescence inverted microscopic analysis; assay type: functional, cell-based

C=C(C)[C@@H]1CC[C@]2(CO)CC[C@]3(C)[C@H](CC[C@@H]4[C@@]5(C)Cc6nn(C(C)=O)nc6C(C)(C)[C@@H]5CC[C@]43C)[C@@H]12
IC50 [1]: 20.7 µM | IC50 [2]: 2.29 µM | IC50 [3]: 7.46 µM | IC50 [4]: 5.67 µM | IC50 [5]: 4.46 µM | IC50 at 72 h [6]: 12.7 µM | LD50 at 336 h [7]: > 600 mg/kg | Activity (HCT-116 [8]): Tde | Activity (HCT-116 [9]): Active | Activity (HCT-116 [10]): Active | viability at 5.7 µM (HCT-116 [11]): 80.9% | Activity (HCT-116 [12]): 14.87% | Activity (HCT-116 [13]): 1.04% | Activity (HCT-116 [14]): 3.14% | Activity (HCT-116 [15]): Active | Activity (HCT-116 [16]): Active | Activity (HCT-116 [17]): Active | Activity (HCT-116 [18]): Active | Activity (HCT-116 [19]): Active | Activity (HCT-116 [20]): Active

C=C(C)[C@@H]1CC[C@]2(CO)CC[C@]3(C)[C@H](CC[C@@H]4[C@@]5(C)CCC(=O)C(C)(C)[C@@H]5CC[C@]43C)[C@@H]12 [BETULONE]
IC50 [1]: 32.9 µM | IC50 [2]: 18.2 µM | IC50 [3]: 22.5 µM | IC50 [4]: 34 µM | IC50 [5]: 13.2 µM

C=C(C)[C@@H]1CC[C@]2(CO)CC[C@]3(C)[C@H](CC[C@@H]4[C@@]5(C)c6c(noc6C)C(=O)C(C)(C)[C@@H]5CC[C@]43C)[C@@H]12
IC50 [1]: > 100 µM | IC50 [2]: 24.3 µM | IC50 [3]: 30.7 µM | IC50 [4]: 29.3 µM | IC50 [5]: > 100 µM

C=C(C)[C@@H]1CC[C@]2(COC(C)=O)CC[C@]3(C)[C@H](CC[C@@H]4[C@@]5(C)Cc6nn(C(C)=O)nc6C(C)(C)[C@@H]5CC[C@]43C)[C@@H]12
IC50 [1]: > 100 µM | IC50 [2]: > 100 µM | IC50 [3]: 17.8 µM | IC50 [4]: 22.5 µM | IC50 [5]: > 100 µM

C=C(C)[C@@H]1CC[C@]2(CO)CC[C@]3(C)[C@H](CC[C@@H]4[C@@]5(C)Cc6c(nnc(C)[n+]6[O-])C(C)(C)[C@@H]5CC[C@]43C)[C@@H]12
IC50 [1]: > 100 µM | IC50 [2]: 16.2 µM | IC50 [3]: 4.5 µM | IC50 [4]: 14.3 µM | IC50 [5]: > 100 µM

C=C(C)[C@@H]1CC[C@]2(CO)CC[C@]3(C)[C@H](CC[C@@H]4[C@@]5(C)C(=O)c6nc(C)oc6C(C)(C)[C@@H]5CC[C@]43C)[C@@H]12
IC50 [1]: 43.2 µM | IC50 [2]: 26.7 µM | IC50 [3]: 19.4 µM | IC50 [4]: 16 µM | IC50 [5]: > 100 µM

C=C(C)[C@@H]1CC[C@]2(C=O)CC[C@]3(C)[C@H](CC[C@@H]4[C@@]5(C)Cc6nn(C(C)=O)nc6C(C)(C)[C@@H]5CC[C@]43C)[C@@H]12
IC50 [1]: 53.2 µM | IC50 [2]: > 100 µM | IC50 [3]: > 100 µM | IC50 [4]: > 100 µM | IC50 [5]: 46 µM

CC[C@@]1(O)C(=O)OCc2c1cc1n(c2=O)Cc2cc3ccccc3nc2-1 [CAMPTOTHECIN]
IC50 [1]: 5.93 µM | IC50 [2]: 1.84 µM | IC50 [3]: 3.04 µM | IC50 [4]: 6.7 µM | IC50 [5]: 1.24 µM | IC50 at 72 h [6]: 0.89 µM | Activity (HCT-116 [21]): Active | Activity (HCT-116 [22]): Active | viability at 6.7 µM (HCT-116 [23]): 80.9% | Activity (HCT-116 [24]): 12.44% | Activity (HCT-116 [25]): 1.6% | Activity (HCT-116 [26]): 5.07% | Activity (HCT-116 [27]): Active | Activity (HCT-116 [28]): Active | Activity (HCT-116 [29]): Active

C=C(C)[C@@H]1CC[C@]2(C(=O)O)CC[C@]3(C)[C@H](CC[C@@H]4[C@@]5(C)Cc6c(nnc(C)[n+]6[O-])C(C)(C)[C@@H]5CC[C@]43C)[C@@H]12
IC50 [1]: > 100 µM | IC50 [2]: > 100 µM | IC50 [3]: 1.5 µM | IC50 [4]: 1.4 µM | IC50 [5]: > 100 µM | IC50 at 72 h [6]: 2.1 µM

C=C(C)[C@@H]1CC[C@]2(COC(C)=O)CC[C@]3(C)[C@H](CC[C@@H]4[C@@]5(C)C=C(NC(C)=O)C(=O)C(C)(C)[C@@H]5CC[C@]43C)[C@@H]12
IC50 [1]: 37.5 µM | IC50 [2]: > 100 µM | IC50 [3]: 21.6 µM | IC50 [4]: 83.6 µM | IC50 [5]: 33.7 µM

C=C(C)[C@@H]1CC[C@]2(CO)CC[C@]3(C)[C@H](CC[C@@H]4[C@@]5(C)C/C(=N\O)C(=O)C(C)(C)[C@@H]5CC[C@]43C)[C@@H]12
IC50 [1]: 47.5 µM | IC50 [2]: 27.6 µM | IC50 [3]: > 100 µM | IC50 [4]: 2.81 µM | IC50 [5]: 35.8 µM

C=C(C)[C@@H]1CC[C@]2(COC(C)=O)CC[C@]3(C)[C@H](CC[C@@H]4[C@@]5(C)C(=O)c6nc(C)oc6C(C)(C)[C@@H]5CC[C@]43C)[C@@H]12
IC50 [1]: 24 µM | IC50 [2]: 48.3 µM | IC50 [3]: 40.3 µM | IC50 [4]: 33.5 µM | IC50 [5]: 22.4 µM

C=C(C)[C@@H]1CC[C@]2(COC(C)=O)CC[C@]3(C)[C@H](CC[C@@H]4[C@@]5(C)c6c(noc6C)C(=O)C(C)(C)[C@@H]5CC[C@]43C)[C@@H]12
IC50 [1]: 7.85 µM | IC50 [2]: 14 µM | IC50 [3]: 22.1 µM | IC50 [4]: 19 µM | IC50 [5]: 14.8 µM

C=C(C)[C@@H]1CC[C@]2(CO)CC[C@]3(C)[C@H](CC[C@@H]4[C@@]5(C)C=C(NC(C)=O)C(=O)C(C)(C)[C@@H]5CC[C@]43C)[C@@H]12
IC50 [1]: > 100 µM | IC50 [2]: > 100 µM | IC50 [3]: 10.5 µM | IC50 [4]: 5.15 µM | IC50 [5]: > 100 µM
